Test results as given in PMC7615677 (Science translational medicine, 2023).
Several values for one entry are separate records, joined by “and”; a condition that tells them apart may be missing. Equal entries are not always repeated.

What was measured:
L. infantum = experiment: Promastigote back-transformation assay on organs of treated hamsters; assay type: in vivo, golden hamsters
Excerpt: Female golden hamsters (5 per treatment group) were infected through intracardiac administration of 2x10^7 L. infantum amastigotes obtained from the spleen of a heavily infected donor hamster. […] After 5-day treatment period, followed by a 10-day wash out period, animals were sacrificed, and parasites burden assessed in the three target organs (liver, spleen, and bone-marrow). For this assessment, organs of individual animals were weighed, except for bone-marrow thus only providing a semi-quantitative evaluation only. Impression smears were Giemsa-stained for microscopic evaluation of amastigote burden, expressed as LDU (= mean number of amastigotes/cell × organ weight in mg) and the results were expressed as a percentage reduction compared to the burdens in the control group (vehicle as placebo). For evaluating the presence of viable residual burden after treatment, a promastigote back-transformation assay was conducted. This consisted of the incubation at ambient temperature of aseptically collected pieces of spleen or liver tissue in 1 mL of promastigote back-transformation medium in 24-well plates. For the bone-marrow, resected femurs were flushed with 1 mL medium. The medium consists of HOMEM pH 6.0 prepared as described elsewhere ([5]) with 10% fetal bovine serum (Gibco), 2.5% penicillin/streptomycin and 1% gentamicin (Merck). A qualitative assessment of the presence of promastigotes was made after 3 and 5 days of incubation and a score was attributed (+, ++ or +++) based on parasite density in the positive wells.
Supplementary Materials and methods
Promastigote transformation assay
For evaluating the presence of viable residual burdens after treatment, a promastigote back-transformation assay is conducted. This test consists of the incubation at ambient temperature of aseptically collected pieces of spleen or liver tissue in 1 mL of promastigote back-transformation medium in 24-well plates. For the bone-marrow, resected femurs are flushed with 1 mL medium. The medium consists of HOMEM pH 6.0 prepared as described elsewhere (1) with 10% fetal bovine serum (Gibco) and 2.5% penicillin/streptomycin and 1% gentamicin (Merck). A qualitative assessment of the presence of promastigotes is made after 3 and 5 days of incubation and a score is attributed (+, ++ or +++) based on parasite density in the positive […]
Supplementary Information on Tables
L. infantum MHOM/FR/96/LEM3323 Cl4 was originally obtained from a French HIV-positive patient (Languedoc area in Southern France) and provided by Dr. Laurence Lachaud of the Centre National de Référence des Leishmanioses (CNRL), Montpellier, France. The miltefosine and paromomycin resistant lines (LEM3323 Cl4 MIL-R and PMM-R) were obtained by successive in vitro selection cycles on intracellular amastigotes (2, 3)

Leishmania = experiment: Activity of synthesized metabolites against Leishmania; assay type: cell-based
[1] = tested on: L. donovani intracellular amastigote stage; set-up: method as in PMID 25740547; conditions: intracellular amastigote stage of L. donovani; cited from earlier work
T. cruzi = tested on: T. cruzi; set-up: method as in PMID 25740547; conditions: cited from earlier work
[2] = 40 mg/kg qd, 5 days, individual animals 1-10

Compound: CCCCCCCCCCCCCCCCOP(=O)([O-])OCC[N+](C)(C)C [miltefosine, reference compound]
- emergence of viable promastigotes from recovered organs, in words (L. infantum; 40 mg/kg): more than half of those following miltefosine administration at 40 mg/kg were positive
- parasite score, Bone-marrow (L. infantum; [2]): ++ (4×) and + (4×) and - (2×)
- parasite score, Liver (L. infantum; [2]): + (3×) and - (7×)
- parasite score, Spleen (L. infantum; [2]): + (5×) and ++ (4×) and -

Compound: Cc1nc(N)nc2[nH]c(CO)c(-c3ccc(C#N)c4c3OCO4)c12 [DNDI0003671146]
- activity against Leishmania, in words (Leishmania): inactive

Compound: COc1ccccc1-c1c(C)[nH]c2nc(N)nc(C)c12 [TCMDC-143610]
- EC50 [1]: 15.8 µM
- EC50 (T. cruzi): 0.13 µM

Compound: Cc1[nH]c2nc(N)nc(C)c2c1-c1ccc(C#N)c(O)c1O [DNDI0003578765]
- activity against Leishmania, in words (Leishmania): inactive
